Reference: publication PMC5579575, “Study of Alzheimer’s Disease-Related Biophysical Kinetics with a Microslit-Embedded Cantilever Sensor in a Liquid Environment” (Sensors (Basel, Switzerland), 2017)

Key:
[1] = tested on: monoclonal 6E10 antibody (mAb); test: Quantitative detection of Aβ42 with mAb-immobilized slit cantilever (resonant frequency shift); assay type: binding; settings: for frequency shift (average): in 10 mM PBS, 30 min, rinsed with PBS, mAb 10 μg/mL immobilized
Method: To detect the target molecules, a commercial monoclonal 6E10 antibody (mAb, 10 μg/mL, Covance, Princeton, NJ, USA) was immobilized on the cantilever surfaces by using a conventional coupling method. The mAb is known to include a specific binding ligand with the first 1–16 sequence of human Aβ peptides. Prior to antibody immobilization, the slit cantilever with a 50 nm thick Au surface was cleaned with piranha solution (a 4:1 ratio of H2SO4 to H2O2) and rinsed with deionized water (DI). In addition, 10 mM of 11-Mercaptoundecanoic acid (11-MUC, Sigma-Aldrich, St. Louis, MO, USA) diluted in ethanol was treated for 12 h on the Au surface of the sensor to establish a self-assembled monolayer. The MUC-modified slit cantilever was immersed in a mixture of 1-ethyl-3-(3-dimethylaminopropyl) carbodiimide (EDC, 80 mM, Sigma-Aldrich) and N-hydroxysuccinimide (NHS, 20 mM, Sigma-Aldrich) dissolved for 2 h in 10 mM of phosphate-buffered solution (PBS, pH = 7.4). Then, mAb, which was diluted as 10 µg/mL in 10 mM PBS, was immobilized on the functionalized surface of the slit cantilever for 2 h, followed by rinsing with PBS and DI.
To evaluate the sensing performance of the slit cantilever in a liquid environment, quantification of the synthetic Aβ42 peptide, which has an identical sequence of 42-residue amino acids associated with human AD, was investigated in a physiological-level concentration. Prior to conducting biomolecular interactions, a drift of resonant frequency was verified and stabilized until steady state (Figure S2). The resonance responses reached its steady state within 200 min and the frequency maintained for 60 min with fluctuations up to 4 Hz which can be regarded as a noise level. Detection of target molecules with the slit cantilever is based on the capturing by immobilized mAb on the cantilever beam. It occurs in the measurement of the frequency shift due to mass loading on the surface. Firstly, the specific antibody (mAb) of 10 μg/mL was chemically immobilized on the 60 μm × 280 μm dimension of the Au surface (50 nm thickness) of the slit cantilever. The Aβ42 peptide was diluted with a ten-fold difference from 10 pg/mL to 1 μg/mL in 10 mM PBS. The prepared Aβ42 solution was individually introduced into the slit cantilever for 30 min, followed by rinsing with PBS. The changes of resonant frequencies in PBS were measured before and after the recognition interactions between mAb and target analytes. The resonant frequency decreased according to the concentration increment of target analytes owing to mass adsorption of Aβ42 to the specific binding site of the immobilized mAb. The average values of the frequency shifts were measured as −15.5, −56.5, −119.5, −472.5, −774 and −799 Hz for the concentrations from 10 pg/mL to 1 μg/mL, respectively. As noted earlier, these responses were satisfied with at least three-sigma significance in terms of the signal-to-noise ratio of the sensors.

[2] = molecular target: monoclonal 6E10 antibody (mAb); test: Binding affinity (KD) of Aβ42-mAb by Langmuir isotherm fit of slit cantilever responses; settings: global fit of Langmuir isotherm (χ^2 = 0.010958), 1:1 binding; fractional saturation vs. Aβ concentration; 1 μg/mL assumed fully saturated; PBS; read-out: equilibrium dissociation constant (KD)
Method: To detect the target molecules, a commercial monoclonal 6E10 antibody (mAb, 10 μg/mL, Covance, Princeton, NJ, USA) was immobilized on the cantilever surfaces by using a conventional coupling method. The mAb is known to include a specific binding ligand with the first 1–16 sequence of human Aβ peptides. Prior to antibody immobilization, the slit cantilever with a 50 nm thick Au surface was cleaned with piranha solution (a 4:1 ratio of H2SO4 to H2O2) and rinsed with deionized water (DI). In addition, 10 mM of 11-Mercaptoundecanoic acid (11-MUC, Sigma-Aldrich, St. Louis, MO, USA) diluted in ethanol was treated for 12 h on the Au surface of the sensor to establish a self-assembled monolayer. […]
To evaluate the sensing performance of the slit cantilever in a liquid environment, quantification of the synthetic Aβ42 peptide, which has an identical sequence of 42-residue amino acids associated with human AD, was investigated in a physiological-level concentration. […] The changes of resonant frequencies in PBS were measured before and after the recognition interactions between mAb and target analytes. […] The average values of the frequency shifts were measured as −15.5, −56.5, −119.5, −472.5, −774 and −799 Hz for the concentrations from 10 pg/mL to 1 μg/mL, respectively. […]

[3] = molecular target: Aβ peptides; settings: conventional surface plasmon resonance (SPR), ref [27]; cited from earlier work
Method: Meanwhile, Equation (5) predicts the hyperbolic plot of fractional saturation ([AB]/[B]) vs. Aβ concentration. This curve follows isotherms for relatively obscure thermodynamic reasons. […] The acquired value is consistent with those of previous studies (1.2 nM) using conventional surface ...

Substance | frequency shift (average) ([1]; 10 pg/mL Aβ42) [Hz] | frequency shift (average) ([1]; 100 pg/mL Aβ42 (ten-fold dilution series 10 pg/mL to 1 μg/mL)) [Hz] | frequency shift (average) ([1]; 1 ng/mL Aβ42 (ten-fold dilution series 10 pg/mL to 1 μg/mL)) [Hz] | frequency shift (average) ([1]; 10 ng/mL Aβ42 (ten-fold dilution series 10 pg/mL to 1 μg/mL)) [Hz] | frequency shift (average) ([1]; 100 ng/mL Aβ42 (ten-fold dilution series 10 pg/mL to 1 μg/mL)) [Hz] | frequency shift (average) ([1]; 1 μg/mL Aβ42) [Hz] | sensitivity ([1]; dynamic range 100 pg/mL to 100 ng/mL Aβ42, logarithmic concentration) [Hz/decade] | Kd [2] [nM] | Kd [3] [nM] | resonant frequency response, negative control ([1]; PSA protein as control experiment, mAb-immobilized cantilever)
Aβ42: synthetic Aβ42 peptide, which has an identical sequence of 42-residue amino acids associated with human AD (Sigma-Aldrich) | −15.5 | −56.5 | −119.5 | −472.5 | −774 | −799 | 330 | 1.75 | 1.2 | –
PSA: prostate cancer antigen (PSA) protein introduced as a control experiment | – | – | – | – | – | – | – | – | – | no obvious responses were observed
